Reference: patent US20070093520A1, “Method of treatment of diarrhea-predominant irritable bowel syndrome in a subject” (priority 2005, published 2007)

Tested on: diarrhea-predominant IBS subjects
Assay: 3007 Study: open-label 52-week safety study, adverse events and withdrawals
[1] = Cilansetron 2 mg/Cilansetron 2 mg
[2] = Cilansetron 2 mg/Cilansetron 2 mg, N=257
[3] = Cilansetron 2 mg/Cilansetron 2 mg, N=257, % of appropriate gender
[4] = Cilansetron 2 mg/Cilansetron 2 mg, gender-specific

Structure (SMILES): Cc1nccn1C[C@H]1CCc2c(c3cccc4c3n2CCC4)C1=O [cilansetron, (R)-(−)-4,5,6,8,9,10-hexahydro-10-[(2-methyl-1H-imidazol-1-yl)methyl]-11H-pyrido-[3,2,1-jk]-carbazol-11-one]
- TEAE: Upper Limb Fractures and Dislocations [1]: 0 n (%)
- TEAE: Upper Respiratory Tract Infection NOS [1]: 18 (7%) n (%)
- TEAE: Upper Respiratory Tract Infections - Pathogen Class Unspecified [1]: 42 (16%) n (%)
- TEAE: Urinalysis NEC [1]: 10 (4%) n (%)
- TEAE: Urinary Tract Infection NOS [1]: 16 (6%) n (%)
- TEAE: Urinary Tract Infections [1]: 17 (7%) n (%)
- TEAE: Urine Analysis Abnormal NOS [1]: 1 (<1%) n (%)
- TEAE: Urine Bilirubin Increased [1]: 0 n (%)
- TEAE: Urine Ketone Body Present [1]: 3 (1%) n (%)
- TEAE: Urine Leukocyte Esterase Positive [1]: 3 (1%) n (%)
- TEAE: Urobilin Urine Present [1]: 1 (<1%) n (%)
- TEAE: Vascular Auscultatory Investigations [1]: 0 n (%)
- TEAE: Vascular Tests NEC (Incl Blood Pressure) [1]: 3 (1%) n (%)
- TEAE: Vasovagal Attack [1]: 1 (<1%) n (%)
- TEAE: Viral Infection NOS [1]: 2 (<1%) n (%)
- TEAE: Viral Infections NEC [1]: 7 (3%) n (%)
- TEAE: Vomiting NOS [1]: 9 (4%) n (%)
- TEAE: Weight Decreased [1]: 1 (<1%) n (%)
- TEAE: Weight Increased [1]: 6 (2%) n (%)
- TEAE: White Blood Cell Analyses [1]: 4 (2%) n (%)
- TEAE: White Blood Cell Count Decreased [1]: 1 (<1%) n (%)
- TEAE: White Blood Cells Urine Positive [1]: 1 (<1%) n (%)
- TEAE leading to permanent discontinuation: Abdominal Distension [2]: 2 (<1%) n (%)
- TEAE leading to permanent discontinuation: Abdominal Pain Aggravated [2]: 1 (<1%) n (%)
- TEAE leading to permanent discontinuation: Abdominal Pain Lower [2]: 0 n (%)
- TEAE leading to permanent discontinuation: Abdominal Pain NOS [2]: 5 (2%) n (%)
- TEAE leading to permanent discontinuation: Abdominal Pain Upper [2]: 1 (<1%) n (%)
- TEAE leading to permanent discontinuation: Alanine Aminotransferase Increased [2]: 1 (<1%) n (%)
- TEAE leading to permanent discontinuation: Angina Pectoris [2]: 1 (<1%) n (%)
- TEAE leading to permanent discontinuation: Appendicitis [2]: 1 (<1%) n (%)
- TEAE leading to permanent discontinuation: Asthma Aggravated [2]: 1 (<1%) n (%)
- TEAE leading to permanent discontinuation: Asthma NOS [2]: 1 (<1%) n (%)
- TEAE leading to permanent discontinuation: Back Pain [2]: 3 (1%) n (%)
- TEAE leading to permanent discontinuation: Bladder Prolapse [2]: 0 n (%)
- TEAE leading to permanent discontinuation: Blood Bilirubin Increased [2]: 1 (<1%) n (%)
- TEAE leading to permanent discontinuation: Blood Pressure Increased [2]: 1 (<1%) n (%)
- TEAE leading to permanent discontinuation: Blood Urine Present [2]: 1 (<1%) n (%)
- TEAE leading to permanent discontinuation: Bone Neoplasm Malignant [2]: 1 (<1%) n (%)
- TEAE leading to permanent discontinuation: Cardiac Disorders [2]: 1 (<1%) n (%)
- TEAE leading to permanent discontinuation: Chest Discomfort [2]: 0 n (%)
- TEAE leading to permanent discontinuation: Chest Pain [2]: 0 n (%)
- TEAE leading to permanent discontinuation: Chest Wall Pain [2]: 0 n (%)
- TEAE leading to permanent discontinuation: Colitis Ischaemic [2]: 0 n (%)
- TEAE leading to permanent discontinuation: Constipation [2]: 7 (3%) n (%)
- TEAE leading to permanent discontinuation: Cough [2]: 0 n (%)
- TEAE leading to permanent discontinuation: Dehydration [2]: 1 (<1%) n (%)
- TEAE leading to permanent discontinuation: Depression [2]: 0 n (%)
- TEAE leading to permanent discontinuation: Diarrhoea Aggravated [2]: 1 (<1%) n (%)
- TEAE leading to permanent discontinuation: Diarrhoea Haemorrhagic [2]: 0 n (%)
- TEAE leading to permanent discontinuation: Diarrhoea NOS [2]: 4 (2%) n (%)
- TEAE leading to permanent discontinuation: Dizziness [2]: 0 n (%)
- TEAE leading to permanent discontinuation: Dyspepsia [2]: 1 (<1%) n (%)
- TEAE leading to permanent discontinuation: Ear and Labyrinth Disorders [2]: 1 (<1%) n (%)
- TEAE leading to permanent discontinuation: Epigastric Discomfort [2]: 0 n (%)
- TEAE leading to permanent discontinuation: Eructation [2]: 1 (<1%) n (%)
- TEAE leading to permanent discontinuation: Eye Disorders [2]: 0 n (%)
- TEAE leading to permanent discontinuation: Faecal Abnormality NOS [2]: 1 (<1%) n (%)
- TEAE leading to permanent discontinuation: Faecal Impaction [2]: 0 n (%)
- TEAE leading to permanent discontinuation: Faecal Incontinence [2]: 0 n (%)
- TEAE leading to permanent discontinuation: Faeces Hard [2]: 1 (<1%) n (%)
- TEAE leading to permanent discontinuation: Fatigue [2]: 3 (1%) n (%)
- TEAE leading to permanent discontinuation: Fibroma NOS [2]: 0 n (%)
- TEAE leading to permanent discontinuation: Flatulence [2]: 2 (<1%) n (%)
- TEAE leading to permanent discontinuation: Gastric Irritation [2]: 1 (<1%) n (%)
- TEAE leading to permanent discontinuation: Gastrointestinal Disorders [2]: 24 (9%) n (%)
- TEAE leading to permanent discontinuation: Gastrointestinal Motility Disorder NOS [2]: 0 n (%)
- TEAE leading to permanent discontinuation: General Disorders and Administration Site Conditions [2]: 3 (1%) n (%)
- TEAE leading to permanent discontinuation: Haemorrhoidal Haemorrhage [2]: 0 n (%)
- TEAE leading to permanent discontinuation: Hallucination NOS [2]: 0 n (%)
- TEAE leading to permanent discontinuation: Hallucination, Auditory [2]: 0 n (%)
- TEAE leading to permanent discontinuation: Headache NOS [2]: 1 (<1%) n (%)
- TEAE leading to permanent discontinuation: Headache NOS Aggravated [2]: 1 (<1%) n (%)
- TEAE leading to permanent discontinuation: Heart Rate Increased [2]: 1 (<1%) n (%)
- TEAE leading to permanent discontinuation: Hepatobiliary Disorders [2]: 1 (<1%) n (%)
- TEAE leading to permanent discontinuation: Hepatosplenomegaly NOS [2]: 1 (<1%) n (%)
- TEAE leading to permanent discontinuation: Hiatus Hernia [2]: 1 (<1%) n (%)
- TEAE leading to permanent discontinuation: Investigations [2]: 5 (2%) n (%)
- TEAE leading to permanent discontinuation: Irritable Bowel Syndrome Aggravated [2]: 1 (<1%) n (%)
- TEAE leading to permanent discontinuation: Lethargy [2]: 0 n (%)
- TEAE leading to permanent discontinuation: Metabolism and Nutrition Disorders [2]: 1 (<1%) n (%)
- TEAE leading to permanent discontinuation: Migraine NOS [2]: 1 (<1%) n (%)
- TEAE leading to permanent discontinuation: Muscle Cramps [2]: 2 (<1%) n (%)
- TEAE leading to permanent discontinuation: Musculoskeletal and Connective Tissue Disorders [2]: 5 (2%) n (%)
- TEAE leading to permanent discontinuation: Nausea [2]: 3 (1%) n (%)
- TEAE leading to permanent discontinuation: Neoplasms Benign, Malignant and Unspecified (Incl Cysts and Polyps) [2]: 2 (<1%) n (%)
- TEAE leading to permanent discontinuation: Nervous System Disorders [2]: 4 (2%) n (%)
- TEAE leading to permanent discontinuation: Pregnancy, Puerperium and Perinatal Conditions [2]: 1 (<1%) n (%)
- TEAE leading to permanent discontinuation: Pruritus NOS [2]: 1 (<1%) n (%)
- TEAE leading to permanent discontinuation: Psychiatric Disorders [2]: 0 n (%)
- TEAE leading to permanent discontinuation: Psychotic Disorder NOS [2]: 0 n (%)
- TEAE leading to permanent discontinuation: Rash Macular [2]: 0 n (%)
- TEAE leading to permanent discontinuation: Rash NOS [2]: 0 n (%)
- TEAE leading to permanent discontinuation: Rectal Disorder NOS [2]: 0 n (%)
- TEAE leading to permanent discontinuation: Rectal Haemorrhage [2]: 2 (<1%) n (%)
- TEAE leading to permanent discontinuation: Rectal Tenesmus [2]: 0 n (%)
- TEAE leading to permanent discontinuation: Renal and Urinary Disorders [2]: 0 n (%)
- TEAE leading to permanent discontinuation: Respiratory, Thoracic and Mediastinal Disorders [2]: 2 (<1%) n (%)
- TEAE leading to permanent discontinuation: Skin and Subcutaneous Tissue Disorders [2]: 1 (<1%) n (%)
- TEAE leading to permanent discontinuation: Somnolence [2]: 1 (<1%) n (%)
- TEAE leading to permanent discontinuation: Stomach Discomfort [2]: 0 n (%)
- TEAE leading to permanent discontinuation: Suicidal Ideation [2]: 0 n (%)
- TEAE leading to permanent discontinuation: Urticaria NOS [2]: 0 n (%)
- TEAE leading to permanent discontinuation: Vertigo [2]: 1 (<1%) n (%)
- TEAE leading to permanent discontinuation: Visual Acuity Reduced [2]: 0 n (%)
- TEAE leading to permanent discontinuation: Vomiting NOS [2]: 1 (<1%) n (%)
- TEAE leading to permanent discontinuation: White Blood Cells Urine Positive [2]: 1 (<1%) n (%)
- Total Number of Subjects with at Least One TEAE Leading to Discontinuation of Study Medication [2]: 33 (13%) n (%)
- TEAE leading to permanent discontinuation: Benign Ovarian Tumour* [3]: 0 n (%)
- TEAE leading to permanent discontinuation: Breast Cancer NOS* [3]: 0 n (%)
- TEAE leading to permanent discontinuation: Ovarian Cancer NOS* [3]: 1 (<1%) n (%)
- TEAE leading to permanent discontinuation: Ovarian Cystadenofibroma* [3]: 0 n (%)
- TEAE leading to permanent discontinuation: Pregnancy NOS* [3]: 1 (<1%) n (%)
- TEAE: Female Reproductive Tract Infections* [4]: 2 (1%) n (%)
- TEAE: Prostate Examination Abnormal* [4]: 1 (1%) n (%)
- TEAE: Smear Cervix Abnormal* [4]: 1 (<1%) n (%)
- TEAE: Vaginal Candidiasis* [4]: 1 (<1%) n (%)
- TEAE: Vaginitis Bacterial NOS* [4]: 1 (<1%) n (%)
- TEAE: Vaginitis* [4]: 1 (<1%) n (%)
- TEAE: Vaginosis Fungal NOS* [4]: 1 (<1%) n (%)
- TEAE: Abdominal Discomfort (Overall): 1 (<1%) n (%)
- TEAE: Abdominal Distension (Overall): 15 (3%) n (%)
- TEAE: Abdominal Pain Aggravated (Overall): 4 (<1%) n (%)
- TEAE: Abdominal Pain Lower (Overall): 10 (2%) n (%)
- TEAE: Abdominal Pain NOS (Overall): 35 (7%) n (%)
- TEAE: Abdominal Pain Upper (Overall): 11 (2%) n (%)
- TEAE: Abdominal Rebound Tenderness (Overall): 1 (<1%) n (%)
- TEAE: Abdominal Tenderness (Overall): 13 (2%) n (%)
- TEAE: Abdominal Therapeutic Procedures NEC (Overall): 1 (<1%) n (%)
- TEAE: Abdominoplasty (Overall): 1 (<1%) n (%)
- TEAE: Abnormal Chest Sounds NOS (Overall): 1 (<1%) n (%)
- TEAE: Abnormal Reflexes (Overall): 1 (<1%) n (%)
- TEAE: Acne NOS (Overall): 1 (<1%) n (%)
- TEAE: Acnes (Overall): 1 (<1%) n (%)
- TEAE: Acquired Hypothyroidism (Overall): 2 (<1%) n (%)
- TEAE: Acrochordons (Overall): 1 (<1%) n (%)
- TEAE: Adenomyosis* (Overall): 1 (<1%) n (%)
- TEAE: Age Related Issues (Overall): 1 (<1%) n (%)
- TEAE: Alanine Aminotransferase Increased (Overall): 14 (3%) n (%)
- TEAE: Allergic Conditions NEC (Overall): 3 (<1%) n (%)
- TEAE: Allergies to Foods, Food Additives, Drugs and Other Chemicals (Overall): 2 (<1%) n (%)
- TEAE: Allergy to Insect Sting (Overall): 1 (<1%) n (%)
- TEAE: Alopecia (Overall): 1 (<1%) n (%)
- TEAE: Alopecias (Overall): 1 (<1%) n (%)
- TEAE: Amenorrhoea NOS* (Overall): 1 (<1%) n (%)
- TEAE: Anaemia NOS (Overall): 1 (<1%) n (%)
- TEAE: Anaemias NEC (Overall): 1 (<1%) n (%)
- TEAE: Anal and Rectal Disorders NEC (Overall): 1 (<1%) n (%)
- TEAE: Anal and Rectal Pains (Overall): 4 (<1%) n (%)
- TEAE: Anal and Rectal Signs and Symptoms (Overall): 4 (<1%) n (%)
- TEAE: Angina Pectoris (Overall): 3 (<1%) n (%)
- TEAE: Animal Bite (Overall): 1 (<1%) n (%)
- TEAE: Anorexia (Overall): 2 (<1%) n (%)
- TEAE: Anxiety (Overall): 8 (1%) n (%)
- TEAE: Anxiety Aggravated (Overall): 3 (<1%) n (%)
- TEAE: Anxiety Symptoms (Overall): 12 (2%) n (%)
- TEAE: Apocrine and Eccrine Gland Disorders (Overall): 3 (<1%) n (%)
- TEAE: Appendicitis (Overall): 1 (<1%) n (%)
- TEAE: Appetite Disorders (Overall): 2 (<1%) n (%)
- TEAE: Arrhythmia NOS (Overall): 1 (<1%) n (%)
- TEAE: Arthralgia (Overall): 13 (2%) n (%)
- TEAE: Arthritis NOS (Overall): 3 (<1%) n (%)
- TEAE: Arthritis NOS Aggravated (Overall): 1 (<1%) n (%)
- TEAE: Arthropathies NEC (Overall): 6 (1%) n (%)
- TEAE: Arthropod Bite (Overall): 2 (<1%) n (%)
- TEAE: Arthropod Sting (Overall): 1 (<1%) n (%)
- TEAE: Aspartate Aminotransferase Increased (Overall): 7 (1%) n (%)
- TEAE: Asthenic Conditions (Overall): 15 (3%) n (%)
- TEAE: Asthma Aggravated (Overall): 1 (<1%) n (%)
- TEAE: Asthma NOS (Overall): 2 (<1%) n (%)
